{"source": "patent US20060127980A1", "about": "“Human excitatory amino acid transporter-2 gene promoter and uses thereof” (priority 2003, published 2006)", "format_in_all_cases": "cell-based, human", "key": {"hEAAT2 protein": {"system": "hEAAT2 protein", "assay": "Western blot of EAAT2 protein in PHFA", "description": "FIG. 5A-E. Effect of pharmacological inhibitors on hEAAT2 promoter activity, and mRNA and protein expression in PHFA following various treatment protocols. A. hEAAT2 promoter activity in PHFA, either untreated (−) or treated with EGF (30 ng/ml), in the absence (−) or presence (+) of KT5720 (5 μM), AG1478 (1 μM), PDTC (100 μM), wortmannin (WRT) (100 nM) or PD98049 (PD) (50 μM). B. hEAAT2 promoter activity in PHFA, either untreated (−) or treated with bromo-cAMP (250 μM) in the absence (−) or presence (+) of KT5720 (5 μM), AG1478 (1 μM), PDTC (100 μM), wortmannin (WRT) (100 nM) or PD98049 (PD) (50 μM). C. hEAAT2 promoter activity in PHFA, either untreated (−) or treated with TNF-α (200 U/ml), in the absence (−) or presence (+) of KT5720 (5 μM), AG1478 (1 μM), PDTC (100 μM), wortmannin (WRT) (100 nM) or PD98049 (PD) (50 μM). D. The effect of the various treatment protocols on hEAAT2 and GAPDH mRNA levels. Upper panel presents relative hEAAT2 RNA expression versus GAPDH expression relative to control untreated or treated samples based on scanning of autoradiograms. Lower panel, actual Northern blots. E. The effect of the various treatment protocols on EAAT2 and ACTIN protein levels. Upper panel presents relative EAAT2 protein expression versus ACTIN expression relative to control untreated or treated samples based on scanning of autoradiograms. Individual experiments were performed 3 times using triplicate samples and S.D. from the mean is presented.\n(§1) Northern and Western Blotting Assays. Total cellular RNA was isolated by the guanidinium/phenol extraction method and Northern blotting was performed as described (Huang et al., 2001, Oncogene 20(48):7051-7063; Su et al., 2000, Oncogene 19(30):3411-3421; Su et al., 2001, Nucleic Acids Res 29(8):1661-1671). Western blotting assays were performed as described (Su et al., 1998, Proc Natl Acad Sci USA 95(24):14400-14405; Su et al., 2002, Oncogene 21(22):3592-602)."}, "hEAAT2 transcription": {"system": "hEAAT2 transcription", "assay": "Nuclear run-on assay of hEAAT2 transcription in PHFA", "details": "7-day treatment", "description": "(§2) FIG. 4A-D. Effect of modulators of hEAAT2 activity on hEAAT2 expression and hEAAT2 promoter activity in PHFA. A. A Northern analysis of hEAAT2 and GAPDH mRNA expression following treatment with EGF (30 ng/ml), TGF-α (30 ng/ml), dbcAMP (200 μM, bromo-cAMP (100 μM) or TNF-α (200 U/ml) for 7 days. B. Nuclear run-on assays determining the relative rates of hEAAT2 and GAPDH transcription as a function of 7-day treatment with the same concentrations of the indicated agents. C. A time course of mRNA expression of hEAAT2 and GAPDH following treatment with EGF, bromo-cAMP or TNF-α (same concentrations as in A.). D. Fold luciferase activity in PHFA transfected with flhEAAT2Prom-luc or various deletion mutants of hEAAT2 and non-transfected controls treated with the indicated compounds for four days.\nPrimer Extension Analysis and Nuclear Run-on Assays. Primer extension assays were performed as described (Su et al., 2000, Oncogene 19(30):3411-3421). A primer with the sequence 5′-[…]-3′ (SEQ ID NO:6) complementary to the 5′ UTR of the hEAAT2 cDNA was used for this assay. Nuclear run-on assays were performed as described (Su et al., 1997, Proc Natl Acad Sci USA 94(17):9125-9130).\nTo examine whether stimulation of hEAAT2 expression involves transcriptional changes, nuclear run-on assays were performed."}, "hEAAT2 mRNA": {"system": "hEAAT2 mRNA", "assay": "Northern blot of hEAAT2 mRNA in PHFA treated with modulators", "details": "7-day treatment, EGF 30 ng/ml, TGF-α 30 ng/ml, dbcAMP 200 μM, bromo-cAMP 100 μM, TNF-α 200 U/ml", "description": "as §2, §1\nPositive and Negative Regulation of hEAAT2 Transcription, Promoter Activity and mRNA Levels in PHFA. Several enhancers of GLT-1 expression in rat astrocytes have been identified, including epidermal growth factor (EGF), transforming growth factor-α (TGF-α) and dibutyryl cyclic AMP (dbcAMP) (Swanson et al., 1997, J Neurosci 17(3):932-940; Zelenaia et al., 2000, Mol Pharmacol 57(4):667-678). Based on these considerations, experiments were performed to determine if these agents similarly modify human hEAAT2 expression in PHFA. Consistent with previous observations in rat astrocytes, 7-day treatment with EGF, TGF-α, and two analogs of cAMP, dbcAMP and bromo-cAMP, stimulated hEAAT2 mRNA expression in PHFA, whereas TNF-α decreased expression (FIG. 4B). […] In contrast, TNF-α decreased expression by 48 h (FIG. 4C)."}}}
{"molecule": "CCCC(=O)Nc1ncnc2c1ncn2[C@@H]1O[C@@H]2COP(=O)(O)O[C@H]2[C@H]1OC(=O)CCC", "note": "[dbcAMP, dibutyryl cyclic AMP]", "values": [{"measurement": "hEAAT2 protein levels", "setting": "hEAAT2 protein", "result": "upregulated"}, {"measurement": "relative rate of transcription of hEAAT2 RNA compared with GAPDH", "setting": "hEAAT2 transcription", "result": "elevated"}, {"measurement": "hEAAT2 mRNA expression", "setting": "hEAAT2 mRNA", "result": "stimulated"}]}
